Values joined by “and” are separate entries in the source; they are usually repeats but may differ in a detail not shown here. Equal entries are not always repeated. Inconclusive results and toxic doses are left out. No stated cut-off is given here; in the data, active means T/C of 150% or more; inactive means T/C below 125%.
Test system: L1210 leukemia ip in BDF1 mice, survival T/C
Test: NCI In Vivo Anticancer Drug Screen. Data for tumor model L1210 Leukemia (intraperitoneal) in B6D2F1 (BDF1) mice
Conditions: endpoint: mean survival time, higher = longer survival
Outline: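 Antitumor effect is assessed in tumor-bearing animals. Survival in the compound arm is compared with a vehicle-dosed control arm and expressed as their quotient.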

[1] = dose: 100.0 mg/kg/injection, schedule: Q01DX009 (ip), vehicle: Klucel (hydroxypropylcellulose) (HPC)
[2] = dose: 100.0 mg/kg/injection, schedule: Q04DX003 (ip), vehicle: Klucel (hydroxypropylcellulose) (HPC)
[3] = dose: 200.0 mg/kg/injection, schedule: Q01DX009 (ip), vehicle: Klucel (hydroxypropylcellulose) (HPC)
[4] = dose: 200.0 mg/kg/injection, schedule: Q04DX003 (ip), vehicle: Klucel (hydroxypropylcellulose) (HPC)
[5] = dose: 400.0 mg/kg/injection, schedule: Q01DX009 (ip), vehicle: Klucel (hydroxypropylcellulose) (HPC)
[6] = dose: 400.0 mg/kg/injection, schedule: Q04DX003 (ip), vehicle: Klucel (hydroxypropylcellulose) (HPC)
[7] = dose: 100.0 mg/kg/injection, schedule: Q01DX001 (ip), vehicle: carboxymethylcellulose (CMC)
[8] = dose: 200.0 mg/kg/injection, schedule: Q01DX001 (ip), vehicle: carboxymethylcellulose (CMC)
[9] = dose: 400.0 mg/kg/injection, schedule: Q01DX001 (ip), vehicle: carboxymethylcellulose (CMC)
[10] = dose: 100.0 mg/kg/injection, schedule: Q01DX001 (ip), vehicle: saline
[11] = dose: 200.0 mg/kg/injection, schedule: Q01DX001 (ip), vehicle: saline
[12] = dose: 400.0 mg/kg/injection, schedule: Q01DX001 (ip), vehicle: saline
[13] = dose: 100.0 mg/kg/injection, schedule: Q01DX009 (ip), vehicle: saline with Tween-80
[14] = dose: 100.0 mg/kg/injection, schedule: Q04DX003 (ip), vehicle: saline with Tween-80
[15] = dose: 200.0 mg/kg/injection, schedule: Q01DX009 (ip), vehicle: saline with Tween-80
[16] = dose: 200.0 mg/kg/injection, schedule: Q04DX003 (ip), vehicle: saline with Tween-80
[17] = dose: 400.0 mg/kg/injection, schedule: Q01DX009 (ip), vehicle: saline with Tween-80
[18] = dose: 400.0 mg/kg/injection, schedule: Q04DX003 (ip), vehicle: saline with Tween-80
[19] = dose: 100.0 mg/kg/injection, schedule: Q01DX009 (ip), vehicle: saline
[20] = dose: 50.0 mg/kg/injection, schedule: Q01DX001 (ip), vehicle: saline
[21] = dose: 100.0 mg/kg/injection, schedule: Q04DX003 (ip), vehicle: saline

Measured: T/C

CC(=O)CC(=O)NCCCN1CCCCC1
inactive: dose: 12.5 mg/kg/injection, schedule: Q01DX009 (ip), vehicle: saline with Tween-80 103 % of control | dose: 12.5 mg/kg/injection, schedule: Q04DX003 (ip), vehicle: saline with Tween-80 103 % of control | dose: 25.0 mg/kg/injection, schedule: Q01DX009 (ip), vehicle: saline with Tween-80 100 % of control | dose: 25.0 mg/kg/injection, schedule: Q04DX003 (ip), vehicle: saline with Tween-80 106 % of control | dose: 50.0 mg/kg/injection, schedule: Q04DX003 (ip), vehicle: saline with Tween-80 97 % of control and 103 % of control

CCCCCCCCCCC1CCCCC1
inactive: dose: 50.0 mg/kg/injection, schedule: Q04DX002 (ip), vehicle: saline with Tween-80 91 % of control | dose: 100.0 mg/kg/injection, schedule: Q04DX002 (ip), vehicle: saline with Tween-80 91 % of control | dose: 200.0 mg/kg/injection, schedule: Q04DX002 (ip), vehicle: saline with Tween-80 98 % of control

CC1(OC(=O)c2ccccc2)C2C=CC1C1C(=O)NC12 (stereo unspecified)
inactive: [1] 87 % of control | [2] 106 % of control | [3] 102 % of control | [4] 102 % of control | [5] 104 % of control | [6] 96 % of control

CCCCCOC(=O)C(O)C(C)(Cl)c1ccccc1 (stereo unspecified)
inactive: dose: 100.0 mg/kg/injection, schedule: Q04DX002 (ip), vehicle: Klucel (hydroxypropylcellulose) (HPC) 100 % of control | dose: 200.0 mg/kg/injection, schedule: Q04DX002 (ip), vehicle: Klucel (hydroxypropylcellulose) (HPC) 111 % of control | dose: 400.0 mg/kg/injection, schedule: Q04DX002 (ip), vehicle: Klucel (hydroxypropylcellulose) (HPC) 100 % of control

COc1c2ccoc2c(OCC=C(C)C)c2oc(=O)ccc12
inactive: dose: 100.0 mg/kg/injection, schedule: Q01DX009 (ip), vehicle: other 98 % of control | dose: 100.0 mg/kg/injection, schedule: Q04DX003 (ip), vehicle: saline sonified 107 % of control | dose: 200.0 mg/kg/injection, schedule: Q01DX009 (ip), vehicle: other 111 % of control | dose: 200.0 mg/kg/injection, schedule: Q04DX003 (ip), vehicle: saline sonified 102 % of control | dose: 400.0 mg/kg/injection, schedule: Q01DX009 (ip), vehicle: other 95 % of control | dose: 400.0 mg/kg/injection, schedule: Q04DX003 (ip), vehicle: saline sonified 97 % of control

Cc1nc(N)nc(N)c1CCCc1ccccc1
inactive: dose: 1.56 mg/kg/injection, schedule: Q01DX001 (ip), vehicle: saline with Tween-80 93 % of control | dose: 3.13 mg/kg/injection, schedule: Q01DX001 (ip), vehicle: saline with Tween-80 93 % of control | dose: 6.25 mg/kg/injection, schedule: Q01DX001 (ip), vehicle: saline with Tween-80 95 % of control and 97 % of control

Cc1ccc(S(=O)(=O)N(c2cc(C)ccc2C)c2ccccc2[N+](=O)[O-])cc1
inactive: dose: 50.0 mg/kg/injection, schedule: Q01DX001 (ip), vehicle: carboxymethylcellulose (CMC) 98 % of control | [7] 91 % of control | [8] 96 % of control | [9] 98 % of control

O=S(=O)(Cc1ccccc1)C(Cl)(Cl)c1ccccc1
inactive: [10] 91 % of control | [1] 96 % of control | [2] 110 % of control | [11] 107 % of control | [3] 102 % of control | [4] 104 % of control | [12] 105 % of control | [5] 95 % of control | [6] 103 % of control

COc1ccc(C(=O)/C=C/c2ccc3c(c2)OCO3)cc1
inactive: [2] 100 % of control | [4] 94 % of control | [6] 93 % of control

CCCCCCCCCCCC(=O)CC
inactive: dose: 50.0 mg/kg/injection, schedule: Q01DX009 (ip), vehicle: saline with Tween-80 96 % of control | [13] 100 % of control | [14] 98 % of control | [15] 92 % of control and 93 % of control | [16] 103 % of control | [17] 94 % of control | [18] 98 % of control

c1ccc2cnccc2c1
inactive: [19] 100 % of control | dose: 200.0 mg/kg/injection, schedule: Q01DX009 (ip), vehicle: saline 110 % of control

NS(=O)(=O)c1ccc(NC(=O)Nc2ccc(Cl)cc2[N+](=O)[O-])cc1
inactive: [1] 94 % of control | [3] 91 % of control | [5] 86 % of control

O=C1C(=C(c2ccccc2)N2CCCCC2)C(=O)c2ccccc21
inactive: [10] 104 % of control | [11] 109 % of control | [12] 106 % of control

CC/C=C(\C)C1(CCC)C(N)=NC(=O)N=C1N
inactive: dose: 75.0 mg/kg/injection, schedule: Q01DX001 (ip), vehicle: carboxymethylcellulose (CMC) 93 % of control | dose: 150.0 mg/kg/injection, schedule: Q01DX001 (ip), vehicle: carboxymethylcellulose (CMC) 91 % of control

CCCCC(CC)C(=O)CC(C)=O (stereo unspecified)
inactive: [20] 103 % of control | [10] 95 % of control | [11] 103 % of control | [12] 97 % of control

O=C(N/N=C\c1ccc(N(CCCl)CCCl)cc1[N+](=O)[O-])c1cccnc1
inactive: [20] 94 % of control | [10] 113 % of control | [11] 92 % of control

NC(=O)c1cnc(N)nc1C(N)=O
inactive: [13] 94 % of control | [14] 96 % of control | [15] 100 % of control | [16] 100 % of control | [17] 96 % of control | [18] 94 % of control

c1ccc2c(c1)CC1Sc3ccccc3N=C21 (stereo unspecified)
inactive: [14] 103 % of control | [16] 95 % of control

NC(=O)C(c1ccccc1)N1CCCC1 (stereo unspecified)
inactive: dose: 25.0 mg/kg/injection, schedule: Q01DX009 (ip), vehicle: saline 91 % of control | dose: 25.0 mg/kg/injection, schedule: Q04DX003 (ip), vehicle: saline 98 % of control | dose: 50.0 mg/kg/injection, schedule: Q01DX009 (ip), vehicle: saline 94 % of control | dose: 50.0 mg/kg/injection, schedule: Q04DX003 (ip), vehicle: saline 97 % of control | [19] 91 % of control | [21] 95 % of control

COc1ccc(-c2nnc(Cl)o2)cc1
inactive: [21] 94 % of control

O=C(O)c1ccc(Br)cc1O
inactive: [7] 98 % of control | [8] 104 % of control | [9] 95 % of control

O=c1cc(COc2ccccc2Cl)[nH]c(=O)[nH]1
inactive: [14] 95 % of control | [16] 95 % of control | [18] 95 % of control

CN1C(=O)c2ccccc2NC(=O)C12OC2c1ccccc1 (stereo unspecified)
inactive: [10] 101 % of control | [11] 101 % of control | [12] 97 % of control

CCc1c(N)nc(N)nc1Cl
inactive: dose: 25.0 mg/kg/injection, schedule: Q01DX Z (ip), vehicle: methylcellulose (MC) 91 % of control

Reference: PubChem BioAssay AID248 (DTP/NCI, 2004)
